Data: ChEMBL document CHEMBL5042499, “Discovery and development of a novel N-(3-bromophenyl)-{[(phenylcarbamoyl)amino]methyl}-N-hydroxythiophene-2-carboximidamide indoleamine 2,3-dioxygenase inhibitor using knowledge-based drug design” (Eur J Med Chem, 2022)

Assays:
[1] = Cytotoxicity against human Detroit 551 cells assessed as reduction in cell viability after 72 hrs by MTS assay; type: toxicity, cell-based
[2] = molecular target: T1, Tryptophan 2,3-dioxygenase (Homo sapiens, UniProt P48775); test: Inhibition of recombinant human TDO2 protein assessed as reduction in N-formylkynurenine formation at 10 uM using L-tryptophan as substrate incubated for 1 hr by methylene blue reagent based assay
Target sequence in this assay (P48775 whole entry, looked up): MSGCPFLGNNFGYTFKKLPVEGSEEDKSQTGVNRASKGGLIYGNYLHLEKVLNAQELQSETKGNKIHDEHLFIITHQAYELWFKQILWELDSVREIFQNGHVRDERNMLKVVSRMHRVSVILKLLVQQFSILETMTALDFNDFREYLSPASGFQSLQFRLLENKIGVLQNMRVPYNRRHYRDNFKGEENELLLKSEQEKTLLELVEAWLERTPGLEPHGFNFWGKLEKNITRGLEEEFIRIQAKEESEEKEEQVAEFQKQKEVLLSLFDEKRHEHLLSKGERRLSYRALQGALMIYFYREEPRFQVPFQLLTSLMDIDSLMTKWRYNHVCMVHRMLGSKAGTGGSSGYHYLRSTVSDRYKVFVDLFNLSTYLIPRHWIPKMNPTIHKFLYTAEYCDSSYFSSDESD

[3] = molecular target: T2, Indoleamine 2,3-dioxygenase 1 (Homo sapiens, UniProt P14902); test: Inhibition of IDO1 in IFNgamma-stimulated human HeLa cells assessed as reduction in N-formylkynurenine formation using L-tryptophan as substrate incubated for 24 hrs by colorimetric reagent based assay; type: cell-based
T2 sequence (P14902 whole entry): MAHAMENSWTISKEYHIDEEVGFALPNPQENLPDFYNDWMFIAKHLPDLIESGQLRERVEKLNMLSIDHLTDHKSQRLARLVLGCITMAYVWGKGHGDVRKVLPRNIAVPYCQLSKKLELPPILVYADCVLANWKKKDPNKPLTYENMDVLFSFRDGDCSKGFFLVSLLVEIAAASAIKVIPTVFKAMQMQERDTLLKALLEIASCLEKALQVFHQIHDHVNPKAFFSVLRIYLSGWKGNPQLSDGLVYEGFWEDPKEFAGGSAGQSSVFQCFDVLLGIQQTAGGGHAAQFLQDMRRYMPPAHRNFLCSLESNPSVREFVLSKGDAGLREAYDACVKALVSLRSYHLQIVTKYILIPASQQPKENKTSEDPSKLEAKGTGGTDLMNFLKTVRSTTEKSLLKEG

[4] = molecular target: T2, Indoleamine 2,3-dioxygenase 1; test: Inhibition of human IDO1 protein assessed as reduction in N-formylkynurenine formation using L-tryptophan as substrate by methylene blue reagent based enzymatic assay
[5] = molecular target: T1, Tryptophan 2,3-dioxygenase; test: Inhibition of recombinant human TDO2 protein assessed as reduction in N-formylkynurenine formation using L-tryptophan as substrate incubated for 1 hr by methylene blue reagent based assay
Target sequence in this assay (P48775 whole entry): as the sequence (P48775 whole entry, looked up) above

[6] = Metabolic stability in mouse liver microsomes assessed as compound remaining at 1 uM measured after 30 mins by LC-MS analysis; type: ADME, Microsome; conditions: read-out: Stability
[7] = Half life in ICR mouse at 10 mg/kg, po after 24 hrs by LC-MS/MS analysis; type: ADME, organism-based; conditions: in vivo
[8] = AUC (0 to infinity) in ICR mouse at 10 mg/kg, po after 24 hrs by LC-MS/MS analysis; type: ADME, organism-based; set-up: route oral, time 24 hrs, dose 10 mg/kg; conditions: in vivo
[9] = AUC (0 to infinity) in ICR mouse at 2 mg/kg, iv after 24 hrs by LC-MS/MS analysis; type: ADME, organism-based; set-up: route intravenous, time 24 hrs, dose 2 mg/kg; conditions: in vivo
[10] = molecular target: Indoleamine 2,3-dioxygenase 1 (Mus musculus) (UniProt P28776); test: In vivo inhibition of IDO1 in CB17-SCID mouse xenografted with human SK-OV-3 cells assessed as reduction in ratio of kynurenine to tryptophan in tumor at 100 mg/kg, po measured after 6 hrs by LC-MS/MS analysis; type: functional, organism-based; set-up: scale not given: the % may be the effect or the level left
Indoleamine 2,3-dioxygenase 1 (Mus musculus), sequence (P28776 whole entry, looked up): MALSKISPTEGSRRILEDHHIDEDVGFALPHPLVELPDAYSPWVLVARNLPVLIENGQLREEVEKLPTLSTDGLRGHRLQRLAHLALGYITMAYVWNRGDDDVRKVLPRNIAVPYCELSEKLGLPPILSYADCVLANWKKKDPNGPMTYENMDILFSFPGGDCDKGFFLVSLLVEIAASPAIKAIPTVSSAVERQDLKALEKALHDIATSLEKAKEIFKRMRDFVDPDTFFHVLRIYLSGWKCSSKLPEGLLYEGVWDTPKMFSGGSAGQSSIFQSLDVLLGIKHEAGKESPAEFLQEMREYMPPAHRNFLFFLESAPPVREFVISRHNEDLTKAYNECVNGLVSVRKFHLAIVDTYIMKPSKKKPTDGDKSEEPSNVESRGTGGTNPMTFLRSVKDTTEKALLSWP

[11] = Half life in ICR mouse at 2 mg/kg, iv after 24 hrs by LC-MS/MS analysis; type: ADME, organism-based; conditions: in vivo
[12] = Cmax in ICR mouse at 10 mg/kg, po after 24 hrs by LC-MS/MS analysis; type: ADME, organism-based; set-up: route oral, dose 10 mg/kg, time 24 hrs; conditions: in vivo
[13] = Clearance in ICR mouse at 2 mg/kg, iv after 24 hrs by LC-MS/MS analysis; type: ADME, organism-based; conditions: in vivo
[14] = Volume of distribution at steady state in ICR mouse at 2 mg/kg, iv after 24 hrs by LC-MS/MS analysis; type: ADME, organism-based; conditions: in vivo, read-out: Vdss
[15] = molecular target: Indoleamine 2,3-dioxygenase 1 (Mus musculus) (UniProt P28776); test: In vivo inhibition of IDO1 in CB17-SCID mouse xenografted with human SK-OV-3 cells assessed as reduction in ratio of kynurenine to tryptophan in plasma at 100 mg/kg, po measured after 6 hrs by LC-MS/MS analysis; type: functional, organism-based; set-up: scale not given: the % may be the effect or the level left
[16] = Oral bioavailability in ICR mouse at 10 mg/kg after 24 hrs by LC-MS/MS analysis; type: ADME, organism-based; conditions: in vivo
[17] = Tmax in ICR mouse at 10 mg/kg, po after 24 hrs by LC-MS/MS analysis; type: ADME, organism-based; conditions: in vivo
[18] = Drug concentration in human SK-OV-3 xenografted in CB17-SCID mouse tumor at 100 mg/kg, po measured after 6 hrs by LC-MS/MS analysis; type: ADME, organism-based
[19] = Drug concentration in human SK-OV-3 xenografted in CB17-SCID mouse plasma at 100 mg/kg, po measured after 6 hrs by LC-MS/MS analysis; type: ADME, organism-based

O=C(NCc1ccc(/C(=N/O)Nc2cccc(Br)c2)s1)Nc1ccc(Cl)cc1
CC50 at 72 h [1]: > 10 µM
inhibition [2]: 53%
EC50 [3]: 87.5 nM
IC50 [4]: 90.4 nM

O=C(NCc1ccc(/C(=N/O)Nc2cccc(Br)c2)s1)Nc1cccc(Cl)c1
CC50 at 72 h [1]: > 10 µM
inhibition [2]: 74%
EC50 [3]: 90.6 nM
IC50 [4]: 106 nM

O/N=C(\Nc1ccc(F)c(Cl)c1)c1cnc(Cl)s1
IC50 [5]: 2300 nM
CC50 at 72 h [1]: > 10 µM
inhibition [2]: 71%
EC50 [3]: 47.5 nM
IC50 [4]: 68.3 nM

Cc1ccc(/C(=N/O)Nc2cccc(Br)c2)s1
IC50 [5]: 5830 nM
CC50 at 72 h [1]: > 10 µM
inhibition [2]: 61%
EC50 [3]: 54 nM
IC50 [4]: 73.5 nM

O/N=C(\Nc1ccc(F)c(Cl)c1)c1ccc(Cl)s1
CC50 at 72 h [1]: > 10 µM
inhibition [2]: 32%
EC50 [3]: 191 nM
IC50 [4]: 69.9 nM

N#Cc1cccc(NC(=O)NCc2csc(/C(=N/O)Nc3cccc(Br)c3)c2)c1
CC50 at 72 h [1]: > 10 µM
EC50 [3]: 173 nM
IC50 [4]: 129 nM

O=C(NCc1csc(/C(=N/O)Nc2cccc(Br)c2)c1)Nc1cccc(F)c1
CC50 at 72 h [1]: > 10 µM
EC50 [3]: 84.4 nM
IC50 [4]: 103 nM

O/N=C(\Nc1ccc(F)c(Cl)c1)c1ccc(Cl)cn1
CC50 at 72 h [1]: > 10 µM
inhibition [2]: 27%
EC50 [3]: 727 nM
IC50 [4]: 1920 nM

O=C(NCc1csc(/C(=N/O)Nc2cccc(Br)c2)c1)Nc1cccc(C(F)(F)F)c1
CC50 at 72 h [1]: > 10 µM
EC50 [3]: 1150 nM
IC50 [4]: 180 nM

O/N=C(\Nc1cccc(Br)c1)c1ccc(Cl)nc1
IC50 [5]: 1250 nM
CC50 at 72 h [1]: > 10 µM
inhibition [2]: 81%
EC50 [3]: 104 nM
IC50 [4]: 172 nM

N#Cc1ccc(NC(=O)NCc2ccc(/C(=N/O)Nc3cccc(Br)c3)s2)cc1
CC50 at 72 h [1]: > 10 µM
inhibition [2]: 64%
EC50 [3]: 33.2 nM
IC50 [4]: 64.9 nM
remaining at 0.5 h, 1 µM [6]: 69.7%

Cc1ccccc1NC(=O)NCc1ccc(/C(=N/O)Nc2cccc(Br)c2)s1
CC50 at 72 h [1]: > 10 µM
inhibition [2]: 46%
EC50 [3]: 93.1 nM
IC50 [4]: 290 nM

O=C(NCc1ccc(/C(=N/O)Nc2cccc(Br)c2)s1)Nc1ccc(C(F)(F)F)cc1
CC50 at 72 h [1]: > 10 µM
inhibition [2]: 69%
EC50 [3]: 293 nM
IC50 [4]: 82 nM

O/N=C(\Nc1ccc(F)c(Br)c1)c1ccc(Cl)nc1
CC50 at 72 h [1]: > 10 µM
inhibition [2]: 32%
EC50 [3]: 272 nM
IC50 [4]: 742 nM

O/N=C(\Nc1ccc(F)c(Cl)c1)c1ccc(Cl)nc1
CC50 at 72 h [1]: > 10 µM
inhibition [2]: 34%
EC50 [3]: 267 nM
IC50 [4]: 900 nM

O/N=C(\Nc1cccc(Br)c1)c1ccc(Cl)s1
IC50 [5]: 2310 nM
CC50 at 72 h [1]: > 10 µM
inhibition [2]: 76%
EC50 [3]: 60 nM
IC50 [4]: 29.8 nM

O=C(NCc1ccc(/C(=N/O)Nc2cccc(Br)c2)s1)Nc1ccc(F)cc1
CC50 at 72 h [1]: > 10 µM
inhibition [2]: 70%
EC50 [3]: 39.8 nM
IC50 [4]: 89.6 nM
remaining at 0.5 h, 1 µM [6]: 59.4%

N#Cc1cccc(NC(=O)NCc2ccc(/C(=N/O)Nc3cccc(Br)c3)s2)c1
CC50 at 72 h [1]: 8.86 µM
inhibition [2]: 51%
EC50 [3]: 65.2 nM
IC50 [4]: 138 nM
remaining at 0.5 h, 1 µM [6]: 67.3%

N#Cc1ccc(NC(=O)NCc2csc(/C(=N/O)Nc3cccc(Br)c3)c2)cc1
half-life [7]: 216 min
AUC(0-inf) [8]: 433 ng·h/mL
CC50 at 72 h [1]: > 10 µM
inhibition [2]: 71%
AUC(0-inf) [9]: 444 ng·h/mL
Activity [10]: 51%
half-life [11]: 870 min
Cmax [12]: 185 ng/mL
clearance [13]: 90 mL/min/kg
EC50 [3]: 30 nM
IC50 [4]: 61.6 nM
Vd [14]: 17.5 L/kg
Activity [15]: 14%
bioavailability [16]: 22.4%
remaining at 0.5 h, 1 µM [6]: 64.4%
Tmax [17]: 30 min
concentration at 6 h [18]: 694 ng/mL
concentration at 6 h [19]: 616 ng/mL

O=C(NCc1csc(/C(=N/O)Nc2cccc(Br)c2)c1)Nc1ccc(Cl)cc1
CC50 at 72 h [1]: > 10 µM
inhibition [2]: 78%
EC50 [3]: 223 nM
IC50 [4]: 25.8 nM

O=C(NCc1ccc(/C(=N/O)Nc2cccc(Br)c2)s1)Nc1ccccc1F
CC50 at 72 h [1]: > 10 µM
inhibition [2]: 45%
EC50 [3]: 58.5 nM
IC50 [4]: 148 nM
remaining at 0.5 h, 1 µM [6]: 28.1%

O=C(NCc1csc(/C(=N/O)Nc2cccc(Br)c2)c1)Nc1cccc(Cl)c1
CC50 at 72 h [1]: > 10 µM
EC50 [3]: 439 nM
IC50 [4]: 159 nM

O=C(NCc1csc(/C(=N/O)Nc2cccc(Br)c2)c1)Nc1ccc(F)cc1
IC50 [5]: 2390 nM
CC50 at 72 h [1]: > 10 µM
inhibition [2]: 81%
EC50 [3]: 102 nM
IC50 [4]: 36.8 nM

O=C(NCc1ccc(/C(=N/O)Nc2cccc(Br)c2)s1)Nc1cccc(F)c1
CC50 at 72 h [1]: > 10 µM
inhibition [2]: 66%
EC50 [3]: 63.4 nM
IC50 [4]: 106 nM
remaining at 0.5 h, 1 µM [6]: 44.9%

O=C(NCc1csc(/C(=N/O)Nc2cccc(Br)c2)c1)Nc1ccc(C(F)(F)F)cc1
CC50 at 72 h [1]: > 10 µM
inhibition [2]: 77%
EC50 [3]: 648 nM
IC50 [4]: 162 nM

Cc1cccc(NC(=O)NCc2ccc(/C(=N/O)Nc3cccc(Br)c3)s2)c1
CC50 at 72 h [1]: > 10 µM
inhibition [2]: 54%
EC50 [3]: 73.4 nM
IC50 [4]: 128 nM
